Legend:
[1] = Half life in DMEM by RP-HPLC analysis in presence of fetal bovine serum; assay type: ADME; settings: cattle, DMEM with fetal bovine serum
[2] = Half life in human HeLa cell cytosolic extract by RP-HPLC analysis; assay type: ADME, cell-based, Cytosol
[3] = Stability of the compound in DMEM assessed as compound remaining after 40 mins by RP-HPLC analysis in presence of fetal bovine serum; assay type: physicochemical; settings: cattle, DMEM with fetal bovine serum; read-out: Stability

| SMILES | half-life [1] | half-life [2] | remaining at 40 min [3] |
| --- | --- | --- | --- |
| CO[C@@H]1[C@H](O)[C@@H](COP(=O)([O-])OP(=O)(O)CP(=O)(O)OC[C@H]2O[C@@H](n3c[n+](C)c4c(=O)[nH]c(N(C)C)nc43)[C@H](O)[C@@H]2O)O[C@H]1n1cnc2c(N)ncnc21 | 0.367 h | 10 h | 35% |
| CO[C@@H]1[C@H](O)[C@@H](COP(=O)(O)CP(=O)(O)OP(=O)([O-])OC[C@H]2O[C@@H](n3c[n+](C)c4c(=O)[nH]c(N(C)C)nc43)[C@H](O)[C@@H]2O)O[C@H]1n1cnc2c(N)ncnc21 | 0.583 h | 120 h | 52% |
| CO[C@@H]1[C@H](O)[C@@H](COP(=O)(O)OP(=O)([O-])OP(=O)(O)OC[C@H]2O[C@@H](n3c[n+](C)c4c(=O)[nH]c(N(C)C)nc43)[C@H](O)[C@@H]2O)O[C@H]1n1cnc2c(N)ncnc21 | 0.217 h | 10 h | 15% |

Reference: ChEMBL document CHEMBL3091282, “Synthesis and evaluation of stability of m3G-CAP analogues in serum-supplemented medium and cytosolic extract” (Bioorg Med Chem, 2013)
